How the values were obtained:
Details in all cases: percent inhibition of specific binding
[1] = target: T1, human recombinant adrenergic α1D receptor (Homo sapiens, UniProt P25100); assay: Adrenergic α1D radioligand binding ([3H]Prozosin); parameters: Inhibition of ligand binding, Adren. alpha1D: concentration or dose not given beside the values
T1 construct: expressed in transfected cells; host or cells: HEK-293 cells
T1 sequence (P25100 1-572): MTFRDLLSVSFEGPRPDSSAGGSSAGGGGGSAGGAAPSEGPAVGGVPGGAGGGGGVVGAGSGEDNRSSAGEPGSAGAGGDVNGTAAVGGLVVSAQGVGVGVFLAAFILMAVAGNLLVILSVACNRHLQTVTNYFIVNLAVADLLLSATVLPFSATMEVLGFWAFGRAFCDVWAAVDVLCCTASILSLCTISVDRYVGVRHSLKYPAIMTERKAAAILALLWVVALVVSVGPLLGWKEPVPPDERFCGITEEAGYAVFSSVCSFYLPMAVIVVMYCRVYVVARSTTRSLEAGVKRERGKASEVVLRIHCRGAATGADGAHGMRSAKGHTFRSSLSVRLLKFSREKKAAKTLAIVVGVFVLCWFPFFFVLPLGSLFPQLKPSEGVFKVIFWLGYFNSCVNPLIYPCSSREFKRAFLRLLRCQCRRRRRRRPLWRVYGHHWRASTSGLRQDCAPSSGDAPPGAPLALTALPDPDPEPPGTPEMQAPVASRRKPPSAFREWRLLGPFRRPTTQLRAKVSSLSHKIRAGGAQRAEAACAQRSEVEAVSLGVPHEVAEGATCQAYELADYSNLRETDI
Procedure: Compounds of invention were incubated with 0.6 nM [^3H]Prozosin for 60 minutes at 25° C. Non-specific binding was estimated in the presence of 10 μM phentolamine. Receptor proteins were filtered and washed, the filters were then counted to determine [^3H]Prozosin specifically bound. […] Biochemical assay results are presented as the percent inhibition of specific binding in Table 6.

[2] = target: T2, human recombinant serotonin (5-Hydroxytryptamine) 5-HT6 receptor (Homo sapiens, UniProt P50406); assay: Serotonin 5-HT6 radioligand binding ([3H]LSD); parameters: Inhibition of ligand binding, Ser. 5-HT6: concentration or dose not given beside the values
T2 construct: expressed in transfected cells; host or cells: human HeLa cells
Source text: Receptor proteins were filtered and washed, the filters were then counted to determine [3H]LSD specifically bound. […] Biochemical assay results are presented as the percent inhibition of specific binding in Table 6.

[3] = target: T3, human recombinant serotonin (5-Hydroxytryptamine) 5-HT2C receptor (Homo sapiens, UniProt P28335); assay: Serotonin 5-HT2C radioligand binding ([3H]Mesulergine); parameters: Inhibition of ligand binding, Ser. 5-HT2C: concentration or dose not given beside the values
T3 construct: expressed in transfected cells; host or cells: CHO-K1 cells
T3 sequence (P28335 33-458): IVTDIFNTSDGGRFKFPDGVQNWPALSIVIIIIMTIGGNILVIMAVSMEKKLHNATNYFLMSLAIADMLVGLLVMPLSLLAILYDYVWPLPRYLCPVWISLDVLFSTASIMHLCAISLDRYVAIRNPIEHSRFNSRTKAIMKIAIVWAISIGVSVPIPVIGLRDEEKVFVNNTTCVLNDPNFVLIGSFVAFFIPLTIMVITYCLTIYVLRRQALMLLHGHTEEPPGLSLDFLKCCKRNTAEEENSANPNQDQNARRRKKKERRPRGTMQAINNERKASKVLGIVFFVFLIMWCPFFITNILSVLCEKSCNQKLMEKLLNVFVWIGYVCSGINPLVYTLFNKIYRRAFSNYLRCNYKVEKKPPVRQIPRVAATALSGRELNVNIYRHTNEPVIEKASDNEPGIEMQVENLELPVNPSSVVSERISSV
Procedure: Compounds of the invention were incubated with 1 nM [^3H]Mesulergine for 60 minutes at 25° C. Non-specific binding was estimated in the presence of 1 μM Mianserin. Receptor proteins were filtered and washed, the filters were then counted to determine [^3H]Mesulergine specifically bound. […] Biochemical assay results are presented as the percent inhibition of specific binding in Table 6.

[4] = target: T4, human recombinant adrenergic α2B receptor (Homo sapiens, UniProt P18089); assay: Adrenergic α2B radioligand binding ([3H]Rauwolscine); parameters: Inhibition of ligand binding, Adren. alpha2B: concentration or dose not given beside the values
T4 construct: expressed in transfected cells; host or cells: CHO-K1 cells
T4 sequence (P18089 1-450): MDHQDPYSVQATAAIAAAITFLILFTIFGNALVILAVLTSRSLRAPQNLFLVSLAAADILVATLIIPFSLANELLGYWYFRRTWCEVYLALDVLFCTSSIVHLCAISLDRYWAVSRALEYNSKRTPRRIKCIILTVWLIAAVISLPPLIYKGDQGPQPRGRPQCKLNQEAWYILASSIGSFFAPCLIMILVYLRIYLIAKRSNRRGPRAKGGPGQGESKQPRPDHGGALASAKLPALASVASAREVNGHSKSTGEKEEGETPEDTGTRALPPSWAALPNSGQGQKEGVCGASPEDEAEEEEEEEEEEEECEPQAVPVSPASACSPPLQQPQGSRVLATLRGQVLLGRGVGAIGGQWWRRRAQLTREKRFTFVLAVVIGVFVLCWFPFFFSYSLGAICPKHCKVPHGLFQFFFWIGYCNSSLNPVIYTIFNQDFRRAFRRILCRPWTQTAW
Procedure: To evaluate in radioligand binding assays the activity of compounds of the invention, human recombinant adrenergic α2B receptor expressed in Chinese hamster ovary (CHO-K1) cells (Uhlen S et al. Eur J. Pharmacol. 343(1):93, 1998) in a modified Tris-HCl buffer (50 mM Tris-HCl, pH 7.4, 12.5 mM MgCl2, 1 mM EDTA, 0.2% BSA) was used. Compounds of the invention were incubated with 2.5 nM [^3H]Rauwolscine for 60 minutes at 25° C. Non-specific binding was estimated in the presence of 10 μM Prozosin. Receptor proteins were filtered and washed, the filters were then counted to determine [^3H]Rauwolscine specifically bound. […] Biochemical assay results are presented as the percent inhibition of specific binding in Table 6.

T2 sequence (P50406 whole entry): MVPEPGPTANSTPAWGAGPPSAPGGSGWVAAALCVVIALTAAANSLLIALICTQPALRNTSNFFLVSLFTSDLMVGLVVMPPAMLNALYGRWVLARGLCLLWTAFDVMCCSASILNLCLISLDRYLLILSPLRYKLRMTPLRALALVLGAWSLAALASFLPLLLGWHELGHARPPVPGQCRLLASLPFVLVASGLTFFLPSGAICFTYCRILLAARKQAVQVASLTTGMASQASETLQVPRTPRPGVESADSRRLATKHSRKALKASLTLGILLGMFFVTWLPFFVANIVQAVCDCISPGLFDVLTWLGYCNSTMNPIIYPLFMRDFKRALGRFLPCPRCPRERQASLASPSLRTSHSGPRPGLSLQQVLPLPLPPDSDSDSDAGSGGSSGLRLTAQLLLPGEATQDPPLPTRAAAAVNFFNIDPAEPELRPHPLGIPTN

SMILES | Inhibition of ligand binding, Adren. alpha1D [1] | Inhibition of ligand binding, Ser. 5-HT6 [2] | Inhibition of ligand binding, Ser. 5-HT2C [3] | Inhibition of ligand binding, Adren. alpha2B [4]
CC(=O)N1CCN(C(=O)Cn2c3c(c4cc(Cl)ccc42)CN(C)CC3)CC1 [Compound 297, 1-(4-Acetyl-piperazin-1-yl)-2-(8-chloro-2-methyl-1,2,3,4-tetrahydro-pyrido[4,3-b]indol-5-yl)-ethanone] | 15% | 9% | 11% | 7%
CN1CCc2c(c3cc(Cl)ccc3n2CC(=O)N2CCSCC2)C1 [Compound 239, 2-(8-chloro-1,2,3,4-tetrahydro-2-methylpyrido[4,3-b]indol-5-yl)-1-thiomorpholinoethanone] | 3% | 8% | 65% | 24%
CC1CCN(C(=O)CCn2c3c(c4cc(Cl)ccc42)CN(C)CC3)CC1 [Compound 325, 3-(8-chloro-1,2,3,4-tetrahydro-2-methylpyrido[4,3-b]indol-5-yl)-1-(4-methylpiperidin-1-yl)propan-1-one] | 36% | 41% | 50% | 58%
CC1CN(C(=O)Cn2c3c(c4cc(Cl)ccc42)CN(C)CC3)CC(C)N1 (stereo not drawn) [Compound 245] | 1% | −2% | 20% | 19%
Cc1ccc2c(c1)c1c(n2CC(=O)N2CCOCC2)CCN(C)C1 [Compound 330, 2-(1,2,3,4-tetrahydro-2,8-dimethylpyrido[4,3-b]indol-5-yl)-1-morpholinoethanone] | 8% | 19% | 17% | 6%
CC1CCN(C(=O)Cn2c3c(c4cc(Cl)ccc42)CN(C)CC3)CC1 [Compound 237, 2-(8-chloro-1,2,3,4-tetrahydro-2-methylpyrido[4,3-b]indol-5-yl)-1-(4-methylpiperidin-1-yl)ethanone] | 14% | 20% | 36% | 12%
CN1CCc2c(c3cc(Cl)ccc3n2CCC(=O)N2CCCC2)C1 [Compound 240, 3-(8-chloro-1,2,3,4-tetrahydro-2-methylpyrido[4,3-b]indol-5-yl)-1-(pyrrolidin-1-yl)propan-1-one] | 42% | 25% | 27% | 50%
COc1ccc(CCn2c3c(c4cc(Cl)ccc42)CN(C)CC3)cc1F [Compound 337, 5-(3-fluoro-4-methoxyphenethyl)-8-chloro-2,3,4,5-tetrahydro-2-methyl-1H-pyrido[4,3-b]indole] | 97% | 104% | 94% | 117%
Cc1ccc2c(c1)c1c(n2CCc2ccc(CO)nc2)CCN(C)C1 [Compound 267] | 92% | 69% | 76% | 100%
COc1ccc(CCn2c3c(c4cc(Cl)ccc42)CN(C)CC3)cc1 [Compound 336, 8-Chloro-5-[2-(4-methoxy-phenyl)-ethyl]-2-methyl-2,3,4,5-tetrahydro-1H pyrido[4,3-b]indole] | 98% | 104% | 99% | 103%
CN1CCc2c(c3cc(Cl)ccc3n2CC(=O)N2CCS(=O)(=O)CC2)C1 [Compound 295] | 4% | −1% | −19% | 18%
Cc1ccc2c(c1)c1c(n2CCc2cnc(C)nc2)CCN(C)C1 [Compound 323, 2,3,4,5-tetrahydro-2,8-dimethyl-5-(2-(2-methylpyrimidin-5-yl)ethyl)-1H-pyrido[4,3-b]indole] | 49% | 69% | 20% | 62%
CN1CCc2c(c3cc(Cl)ccc3n2CC(=O)N2CCCCC2)C1 [Compound 236, 2-(8-chloro-1,2,3,4-tetrahydro-2-methylpyrido[4,3-b]indol-5-yl)-1-(piperidin-1-yl)ethanone] | 10% | 18% | 54% | 9%
CN1CCc2c(c3cc(Cl)ccc3n2CCC(=O)N2CCCCC2)C1 [Compound 326, 3-(8-chloro-1,2,3,4-tetrahydro-2-methylpyrido[4,3-b]indol-5-yl)-1-(piperidin-1-yl)propan-1-one] | 40% | 26% | 31% | 52%
CN1CCc2c(c3cc(Cl)ccc3n2CC(=O)N2CCCC2)C1 [Compound 243, 2-(8-chloro-1,2,3,4-tetrahydro-2-methylpyrido[4,3-b]indol-5-yl)-1-(pyrrolidin-1-yl)ethanone] | 8% | 12% | 33% | 6%
Cc1ccc2c(c1)c1c(n2CCc2ccccc2)CCN(C)C1 [Compound 20, 2,3,4,5-tetrahydro-2,8-dimethyl-5-phenethyl-1H-pyrido[4,3-b]indole] | 94% | – | 98% | 108%
Cc1ccc(CCn2c3c(c4cc(C)ccc42)CN(C)CC3)cc1 [Compound 25, 2,3,4,5-tetrahydro-2,8-dimethyl-5-(4-methylphenethyl)-1H-pyrido[4,3-b]indole] | – | 103% | 99% | 108%

Reference: patent US9096591B2, “Tetracyclic compounds” (Medivation Technologies, Inc., priority 2007, dated 2015)
